Consider 22 compounds from ChEMBL document CHEMBL4406807, “Discovery of 3,4,6-Trisubstituted Piperidine Derivatives as Orally Active, Low hERG Blocking Akt Inhibitors via Conformational Restriction and Structure-Based Design” (J Med Chem, 2019).

Data set [1] deals with OVCAR-8. The data set can be described thus: Antiproliferative activity against human OVCAR8 cells. The data set is classed as functional, cell-based.
The target in data set [2] is hERG (KCNH2) (Homo sapiens, UniProt Q12809). The data set can be described thus: Inhibition of ERG in human HEK293 cells at 3 uM at -80 mV holding potential by whole-cell patch clamp assay relative to control. The data set is classed as cell-based. To be noted: HEK293 cells expressing ERG. A general note: Patch clamp records ionic current or voltage across a cell membrane.
Chain of hERG (KCNH2) (Q12809 whole entry): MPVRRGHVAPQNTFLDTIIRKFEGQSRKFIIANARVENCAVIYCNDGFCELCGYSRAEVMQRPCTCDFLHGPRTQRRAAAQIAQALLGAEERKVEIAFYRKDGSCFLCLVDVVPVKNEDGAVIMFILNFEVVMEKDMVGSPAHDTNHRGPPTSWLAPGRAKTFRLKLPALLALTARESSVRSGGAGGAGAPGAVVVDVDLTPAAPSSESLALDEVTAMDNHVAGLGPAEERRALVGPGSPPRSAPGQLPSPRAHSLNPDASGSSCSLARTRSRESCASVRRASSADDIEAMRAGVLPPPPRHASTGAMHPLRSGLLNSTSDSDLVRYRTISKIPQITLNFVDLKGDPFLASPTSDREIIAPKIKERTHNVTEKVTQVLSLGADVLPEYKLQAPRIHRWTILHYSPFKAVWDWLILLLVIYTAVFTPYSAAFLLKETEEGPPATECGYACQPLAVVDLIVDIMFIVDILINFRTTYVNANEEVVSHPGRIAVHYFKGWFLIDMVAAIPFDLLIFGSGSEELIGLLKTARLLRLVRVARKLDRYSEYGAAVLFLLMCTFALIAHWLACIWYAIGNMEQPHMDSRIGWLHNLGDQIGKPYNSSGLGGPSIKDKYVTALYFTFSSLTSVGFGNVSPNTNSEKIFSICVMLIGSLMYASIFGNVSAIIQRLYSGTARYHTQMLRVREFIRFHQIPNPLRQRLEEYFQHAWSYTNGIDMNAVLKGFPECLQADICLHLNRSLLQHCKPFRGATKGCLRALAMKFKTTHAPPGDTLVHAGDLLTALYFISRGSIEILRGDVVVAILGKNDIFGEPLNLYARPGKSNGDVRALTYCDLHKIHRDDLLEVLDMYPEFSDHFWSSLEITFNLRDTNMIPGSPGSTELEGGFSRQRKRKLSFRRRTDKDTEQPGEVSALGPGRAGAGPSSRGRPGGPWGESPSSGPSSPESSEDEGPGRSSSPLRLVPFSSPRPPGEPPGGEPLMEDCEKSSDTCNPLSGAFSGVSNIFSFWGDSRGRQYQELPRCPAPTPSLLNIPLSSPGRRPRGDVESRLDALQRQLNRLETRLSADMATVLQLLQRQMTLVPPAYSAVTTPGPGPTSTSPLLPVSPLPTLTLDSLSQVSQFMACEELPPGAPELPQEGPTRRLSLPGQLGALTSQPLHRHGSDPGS

The subject of data set [3] is LNCaP. Nature of the data set: Antiproliferative activity against human LNCAP cells. The data set is classed as functional, cell-based.
Data set [4] has as its target RAC-alpha serine/threonine-protein kinase (Homo sapiens, UniProt P31749).
Description: Inhibition of human Akt1 expressed in Escherichia coli using STK Substrate 2-biotin as substrate incubated for 1 hr by HTRF assay
Data set [5] relates to HCT-116. The data set can be described thus: cells. Particulars: Homo sapiens, HCT-116, 72 h.
Data set [6] is described as follows: Inhibition of recombinant His-tagged human PKA expressed in Escherichia coli using Ser/Thr 01 as substrate after 1 hr by Z-lyte assay.
In data set [7] the target is Ribosomal protein S6 kinase alpha-1 (Homo sapiens, UniProt Q15418). Nature of the data set: Inhibition of RSK1 (unknown origin) by mobility shift assay.
Chain of Ribosomal protein S6 kinase alpha-1 (Q15418 whole entry): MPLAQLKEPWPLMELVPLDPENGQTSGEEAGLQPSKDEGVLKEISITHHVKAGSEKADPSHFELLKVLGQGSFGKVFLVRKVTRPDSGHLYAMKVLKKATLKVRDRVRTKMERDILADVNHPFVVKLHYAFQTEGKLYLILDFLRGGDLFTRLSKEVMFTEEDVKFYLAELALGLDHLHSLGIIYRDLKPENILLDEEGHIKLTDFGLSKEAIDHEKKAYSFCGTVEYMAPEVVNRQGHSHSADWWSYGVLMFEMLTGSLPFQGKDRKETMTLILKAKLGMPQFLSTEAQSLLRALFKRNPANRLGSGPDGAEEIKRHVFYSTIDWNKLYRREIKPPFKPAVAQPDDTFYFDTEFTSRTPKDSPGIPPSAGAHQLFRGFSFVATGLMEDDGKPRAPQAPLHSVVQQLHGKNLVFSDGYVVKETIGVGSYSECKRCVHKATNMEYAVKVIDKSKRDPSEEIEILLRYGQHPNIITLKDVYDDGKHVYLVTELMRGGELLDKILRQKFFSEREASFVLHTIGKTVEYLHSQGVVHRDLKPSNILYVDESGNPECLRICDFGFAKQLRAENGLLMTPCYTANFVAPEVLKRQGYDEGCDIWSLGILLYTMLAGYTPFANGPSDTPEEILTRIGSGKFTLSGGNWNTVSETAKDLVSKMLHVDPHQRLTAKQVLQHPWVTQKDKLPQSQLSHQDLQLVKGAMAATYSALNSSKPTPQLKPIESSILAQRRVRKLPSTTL
For data set [8], the target named is Ribosomal protein S6 kinase beta-1 (Homo sapiens, UniProt P23443). Nature of the data set: Inhibition of human P70S6K by mobility shift assay.
Chain of Ribosomal protein S6 kinase beta-1 (P23443 whole entry): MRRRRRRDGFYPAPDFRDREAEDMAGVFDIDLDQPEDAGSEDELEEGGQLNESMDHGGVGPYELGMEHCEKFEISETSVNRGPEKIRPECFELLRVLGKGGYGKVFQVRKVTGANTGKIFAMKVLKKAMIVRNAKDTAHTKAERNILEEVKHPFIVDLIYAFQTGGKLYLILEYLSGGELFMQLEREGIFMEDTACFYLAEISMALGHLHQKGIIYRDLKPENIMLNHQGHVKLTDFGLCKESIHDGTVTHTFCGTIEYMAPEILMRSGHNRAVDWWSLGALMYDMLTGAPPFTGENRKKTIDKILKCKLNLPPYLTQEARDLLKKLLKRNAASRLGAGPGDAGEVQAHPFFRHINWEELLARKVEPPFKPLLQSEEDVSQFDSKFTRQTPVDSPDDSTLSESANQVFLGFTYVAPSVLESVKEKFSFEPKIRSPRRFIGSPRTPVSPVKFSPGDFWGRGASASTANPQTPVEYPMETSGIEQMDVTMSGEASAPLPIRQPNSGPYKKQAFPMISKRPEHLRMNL
In data set [9] the test system is SK-OV-3. The data set can be described thus: Antitumor activity against human SKOV3 cells xenografted in BALB/c nude mouse assessed as tumor growth inhibition at 60 mg/kg, po administered once daily for 21 days relative to control. The data set is classed as functional. Particulars: SK-OV-3, po, 504 h, read-out: TGI. For orientation: A xenograft is tissue or cells of one species grown in another, often human tumour cells in immunodeficient mice.

Data set [10] can be described thus: Toxicity in BALB/c nude mouse xenografted with human SKOV3 cells assessed as reduction in mouse survival at 60 to 80 mg/kg, po administered once daily for 21 days. Format: organism-based. Particulars: in vivo, 504 h.
Data set [11] is described as follows: Toxicity in BALB/c nude mouse xenografted with human SKOV3 cells assessed as effect on body weight at 60 to 80 mg/kg, po administered once daily for 21 days. Format: organism-based. To be noted: in vivo, 504 h.
Data set [12] concerns the target T1, Serine/threonine-protein kinase Sgk1 (Homo sapiens, UniProt O00141).
T1 sequence (O00141 whole entry): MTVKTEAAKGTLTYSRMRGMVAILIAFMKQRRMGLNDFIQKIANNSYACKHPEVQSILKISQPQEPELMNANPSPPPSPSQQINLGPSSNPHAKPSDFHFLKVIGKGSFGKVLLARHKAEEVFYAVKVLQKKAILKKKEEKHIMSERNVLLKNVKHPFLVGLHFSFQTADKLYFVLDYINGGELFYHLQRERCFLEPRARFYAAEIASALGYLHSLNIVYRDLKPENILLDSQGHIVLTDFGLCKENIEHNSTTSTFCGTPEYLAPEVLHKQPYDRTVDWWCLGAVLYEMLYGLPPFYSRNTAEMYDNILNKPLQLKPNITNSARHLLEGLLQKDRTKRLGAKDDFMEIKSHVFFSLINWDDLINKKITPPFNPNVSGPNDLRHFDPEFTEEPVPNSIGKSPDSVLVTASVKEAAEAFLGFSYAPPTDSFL
Nature of the data set: Inhibition of human SGK by mobility shift assay.

Chain of RAC-alpha serine/threonine-protein kinase (P31749 whole entry): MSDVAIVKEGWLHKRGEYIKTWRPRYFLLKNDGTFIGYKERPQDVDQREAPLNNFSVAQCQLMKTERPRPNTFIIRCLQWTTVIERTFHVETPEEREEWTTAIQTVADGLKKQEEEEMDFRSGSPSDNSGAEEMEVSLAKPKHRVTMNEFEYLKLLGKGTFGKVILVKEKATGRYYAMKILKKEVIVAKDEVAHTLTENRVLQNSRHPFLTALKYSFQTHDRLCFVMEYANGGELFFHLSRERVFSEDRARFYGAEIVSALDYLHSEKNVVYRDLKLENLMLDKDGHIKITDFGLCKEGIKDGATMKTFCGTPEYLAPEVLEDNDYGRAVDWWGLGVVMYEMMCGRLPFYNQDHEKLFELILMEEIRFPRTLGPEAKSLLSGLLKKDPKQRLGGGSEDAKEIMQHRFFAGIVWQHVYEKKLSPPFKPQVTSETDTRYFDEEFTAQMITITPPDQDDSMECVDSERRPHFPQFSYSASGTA

As usually defined, the IC50 is the concentration at which inhibition is half-maximal. Broadly, the inhibition is the share of the control response that was lost under treatment. A high value points to a strong effect. With `CN(C)CC[C@@H]1C[C@@H](c2ccc(Cl)c(Cl)c2)[C@H](NC(=O)c2cc(-c3c(Cl)cnn3C)c(Cl)o2)CN1`, the IC50 in data set [1] was determined as 1510 nM; in data set [3], 1930 nM; in data set [4], 3.4 nM; in data set [5], 1710 nM. The compound also came in with an inhibition at 3 µM in [2] of 73.4%.
In the same order, the values of `Cn1ncc(Cl)c1-c1cc(C(=O)N[C@@H]2CN[C@H](CC(O)CO)C[C@H]2c2ccc(F)c(F)c2)oc1Cl` (stereo partly specified) are 690 nM, 100 nM, 3.31 nM, 800 nM and 4.7%.
As to `CCC[C@@H]1C[C@@H](c2ccc(Cl)c(Cl)c2)[C@H](NC(=O)c2cc(-c3c(Cl)cnn3C)c(Cl)o2)CN1`, the IC50 in data set [1] worked out at 1620 nM; in data set [4], 10.4 nM; in [5] it was 1020 nM. In data set [2], this compound returned an inhibition at 3 µM of 85.3%.
Turning to `Cn1ncc(Cl)c1-c1cc(C(=O)N[C@@H]2CN[C@H](CCN3CCC(O)CC3)C[C@H]2c2ccc(Cl)c(Cl)c2)oc1Cl`, the IC50 in data set [1] is 15900 nM; in data set [3], 1140 nM; in data set [4], 5.99 nM; in data set [5] it was 13700 nM. In [2], 3 µM produced 12% inhibition.
`Cn1ncc(Cl)c1-c1cc(C(=O)N[C@@H]2CN[C@H](CCN3CCCCC3)C[C@H]2c2ccc(Cl)c(Cl)c2)oc1Cl`: the IC50 was determined as 1660 nM in [1], 1780 nM in data set [3], 5.65 nM in data set [4] and 1020 nM in data set [5]. The compound also displayed an inhibition at 3 µM in data set [2] of 93.1%.
The matching figures for `Cn1ncc(Cl)c1-c1cc(C(=O)N[C@@H]2CN[C@H](CCn3cncn3)C[C@H]2c2ccc(Cl)c(Cl)c2)oc1Cl`: 1560 nM, 60 nM, 4.47 nM, 560 nM and 50.1%.
Consider `Cn1ncc(Cl)c1-c1cc(C(=O)N[C@H](CN)Cc2ccc(F)c(F)c2)oc1Cl` [UPROSERTIB], for which the IC50 in data set [1] was 240 to 1320 nM; in data set [3] it was 70 nM; in data set [6], 0.6 nM; in data set [7] it was 339 nM; in data set [8], 60 nM; in data set [12] it was 211 nM. The compound also gave an IC50 in data set [5] of 720 to 1270 nM. In addition, the inhibition at 3 µM in data set [2] fell in the range of 50 to 50.2%. The inhibition in vivo at 60 mg/kg in [9] is 63.3%. The Activity entry in data set [10] and in data set [11] was “Non-Toxic” each time.
Take `Cn1ncc(Cl)c1-c1cc(C(=O)N[C@@H]2CN[C@H](CC(=O)O)C[C@H]2c2ccc(Cl)c(Cl)c2)oc1Cl`: the IC50 in data set [1] is 5120 nM; in [3], 640 nM; in data set [4], 1.94 nM; in [5], 4020 nM. Moreover, in [2], the inhibition at 3 µM was 9.1%.
For `Cn1ncc(Cl)c1-c1cc(C(=O)N[C@@H]2CN[C@H](CC(=O)NC3CC3)C[C@H]2c2ccc(Cl)c(Cl)c2)oc1Cl`, the IC50 in data set [1] was 580 nM; in [3], 190 nM; in [4] it was 3.95 nM; in data set [5] it was 740 nM. In addition, at 3 µM the inhibition in data set [2] was 70.4%.
The matching figures for `Cn1ncc(Cl)c1-c1cc(C(=O)N[C@@H]2CN[C@H](CCCO)C[C@H]2c2ccc(Cl)c(Cl)c2)oc1Cl`: 600 nM, 210 nM, 2.56 nM, 510 nM and 72%.
As to `Cn1ncc(Cl)c1-c1cc(C(=O)N[C@@H]2CN[C@H](CCO)C[C@H]2c2ccc(Cl)c(Cl)c2)oc1Cl`, the IC50 was found to be 610 nM in [1], 160 nM in data set [3], 2.74 nM in data set [4] and 340 nM in [5]. Further, 3 µM produced 51.8% inhibition in data set [2].
In the same order, the values of `CNC(=O)C[C@@H]1C[C@@H](c2ccc(Cl)c(Cl)c2)[C@H](NC(=O)c2cc(-c3c(Cl)cnn3C)c(Cl)o2)CN1` are 1130 nM, 40 nM, 2.64 nM, 450 nM and 45.9%.
In the same order, the values of `Cn1ncc(Cl)c1-c1cc(C(=O)N[C@@H]2CN[C@H](CCNS(C)(=O)=O)C[C@H]2c2ccc(F)c(F)c2)oc1Cl` are 1530 nM, 50 nM, 3.29 nM, 920 nM and 8%.
The matching figures for `Cn1ncc(Cl)c1-c1cc(C(=O)N[C@@H]2CNCC[C@H]2c2ccc(Cl)c(Cl)c2)oc1Cl`: 110 nM, 100 nM, 2.9 nM, 280 nM and 87%.
On to `Cn1cc(-c2c(Br)cnn2C)cc1C(=O)N[C@@H]1CNCC[C@H]1c1ccc(Cl)cc1`, for which the IC50 in data set [1] came to 3030 nM; in [4] it was 255 nM; in [5], 8700 nM. Also, the inhibition at 3 µM in data set [2] turned out to be 63.8%.
With `Cn1ncc(Cl)c1-c1cc(C(=O)N[C@@H]2CN[C@H](CC(=O)NCCO)C[C@H]2c2ccc(Cl)c(Cl)c2)oc1Cl`, the half-inhibitory concentration (IC50) in [1] is 1450 nM; in data set [3] it was 40 nM; in data set [4], 1.41 nM; in data set [5] it was 670 nM. In [2], at 3 µM the inhibition was 6.7%.
The matching figures for `Cn1ncc(Cl)c1-c1cc(C(=O)N[C@@H]2CN[C@H](CC(N)=O)C[C@H]2c2ccc(Cl)c(Cl)c2)oc1Cl`: 1000 nM, 160 nM, 3.24 nM, 650 nM and 15.7%.
In the case of `Cn1ncc(Cl)c1-c1cc(C(=O)N[C@@H]2CN[C@H](CC(O)CO)C[C@H]2c2ccc(Cl)c(Cl)c2)oc1Cl` (stereo partly specified), the IC50 amounted to 1610 nM in data set [1], 70 nM in data set [3], 3.79 nM in data set [4] and 1110 nM in data set [5]. Also, the inhibition at 3 µM in [2] amounted to 17%.
With `Cn1ncc(Cl)c1-c1ccc(C(=O)N[C@@H]2CNCC[C@H]2c2cccc(F)c2)cc1`, the IC50 in data set [1] worked out at 5820 nM; in data set [4], 72.3 nM. For the same compound, 3 µM produced 10.7% inhibition in [2].
With `Cn1ncc(Cl)c1-c1cc(C(=O)N[C@@H]2CN[C@H](CCN3CCOCC3)C[C@H]2c2ccc(Cl)c(Cl)c2)oc1Cl`, the IC50 turned out to be 1760 nM in [1], 410 nM in data set [3], 8.78 nM in data set [4] and 1560 nM in [5]. The same compound returned an inhibition at 3 µM in data set [2] of 82.3%.
Take `Cn1nccc1-c1ccc(C(=O)N[C@@H]2CNCC[C@H]2c2ccc(F)c(F)c2)cc1`: the IC50 in [1] was found to be 5330 nM; in data set [4] it was 21.6 nM; in data set [5] it was 3720 nM. Also, in data set [2], at 3 µM the inhibition was 25%.
For `CC(=O)NCC[C@@H]1C[C@@H](c2ccc(F)c(F)c2)[C@H](NC(=O)c2cc(-c3c(Cl)cnn3C)c(Cl)o2)CN1`, the IC50 was 880 nM in [1], 130 nM in data set [3], 2.49 nM in data set [4] and 920 nM in data set [5]. Besides, in data set [2], at 3 µM the inhibition was 7.4%.
